Measured values published in patent US20230123334A1, “AMINO LIPID COMPOUND, PREPARATION METHOD THEREFOR, AND APPLICATION THEREOF” (SHENZHEN SHENXIN BIOTECHNOLOGY CO., LTD., priority 2020, published 2023).

test system: HEK293 cells; experiment: Preliminary screening as mRNA vectors, EGFP mRNA transfection of HEK293 cells; type: cell-based; settings: EGFP mRNA 50 ng per well, 96-well plates; percentage of GFP fluorescent cells relative to total number of cells (Hoechst)
In short: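 Each well of HEK293 cells received 50 ng of EGFP mRNA. Efficiency was expressed as percent GFP-expressing cells over Hoechst-defined total cell number.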

SMILES | Absolute mRNA transfection efficiency in HEK293 cells [%]
CCCCCCCCCCCCCCCCCCSc1nc(NCCCCCCCCCCCCC)nc(NCCN2CCOCC2)n1 [Compound D2S18N13] | 0.0
CCCCCCCCCCCCCCCCCCSc1nc(NCCCCCCCCCCCCCCC)nc(NCCN2CCOCC2)n1 [Compound D2S18N15] | 0.0
CCCCCCCCCCCCCCCCCCSc1nc(NCCCCCCCCCCCCCCCC)nc(NCCN2CCOCC2)n1 [Compound D2S18N16] | 0.0
CCCCCCCCCCCCCCCCCCNc1nc(NCCN2CCOCC2)nc(SCCCCCCCCCCCCCCCCCC)n1 [Compound D2S18N18] | 0.0
CCCCCCNc1nc(NCCN2CCCC2)nc(SCCCCCC)n1 [Compound D3S6N6] | 0.1
CCCCCCCNc1nc(NCCN2CCCC2)nc(SCCCCCC)n1 [Compound D3S6N7] | 0.2
CCCCCCCCNc1nc(NCCN2CCCC2)nc(SCCCCCC)n1 [Compound D3S6N8] | 0.0
CCCCCCCCCNc1nc(NCCN2CCCC2)nc(SCCCCCC)n1 [Compound D3S6N9] | 0.3
CCCCCCCCCCCNc1nc(NCCN2CCCC2)nc(SCCCCCC)n1 [Compound D3S6N11] | 0.7
CCCCCCCCCCCCNc1nc(NCCN2CCCC2)nc(SCCCCCC)n1 [Compound D3S6N12] | 4.1
CCCCCCCCCCCCCNc1nc(NCCN2CCCC2)nc(SCCCCCC)n1 [Compound D3S6N13] | 7.7
CCCCCCCCCCCCCCCNc1nc(NCCN2CCCC2)nc(SCCCCCC)n1 [Compound D3S6N15] | 14.4
CCCCCCCCCCCCCCCCNc1nc(NCCN2CCCC2)nc(SCCCCCC)n1 [Compound D3S6N16] | 37.3
CCCCCCCCCCCCCCCCCCNc1nc(NCCN2CCCC2)nc(SCCCCCC)n1 [Compound D3S6N18] | 32.5
CCCCCCSc1nc(NCCN2CCCC2)nc(SCCCCCC)n1 [Compound D3S6S6] | 1.9
CCCCCCCSc1nc(NCCN2CCCC2)nc(SCCCCCC)n1 [Compound D3S6S7] | 1.3
CCCCCCCCSc1nc(NCCN2CCCC2)nc(SCCCCCC)n1 [Compound D3S6S8] | 1.6
CCCCCCCCCSc1nc(NCCN2CCCC2)nc(SCCCCCC)n1 [Compound D3S6S9] | 2.6
CCCCCCCCCCSc1nc(NCCN2CCCC2)nc(SCCCCCC)n1 [Compound D3S6S10] | 2.5
CCCCCCCCCCCSc1nc(NCCN2CCCC2)nc(SCCCCCC)n1 [Compound D3S6S11] | 0.7
CCCCCCCCCCCCSc1nc(NCCN2CCCC2)nc(SCCCCCC)n1 [Compound D3S6S12] | 1.0
CCCCCCCCCCCCCCSc1nc(NCCN2CCCC2)nc(SCCCCCC)n1 [Compound D3S6S14] | 0.3
CCCCCCCCCCCCCCCSc1nc(NCCN2CCCC2)nc(SCCCCCC)n1 [Compound D3S6S15] | 12.0
CCCCCCCCCCCCCCCCSc1nc(NCCN2CCCC2)nc(SCCCCCC)n1 [Compound D3S6S16] | 16.9

SMILES | Absolute mRNA transfection efficiency in HEK293 cells [%]
CCCCCCCCCCCCCCCCCCSc1nc(NCCN2CCCC2)nc(SCCCCCC)n1 [Compound D3S6S18] | 36.8
CCCCCCCSc1nc(NCCCCCC)nc(NCCN2CCCC2)n1 [Compound D3S7N6] | 5.8
CCCCCCCNc1nc(NCCN2CCCC2)nc(SCCCCCCC)n1 [Compound D3S7N7] | 6.6
CCCCCCCCNc1nc(NCCN2CCCC2)nc(SCCCCCCC)n1 [Compound D3S7N8] | 1.3
CCCCCCCCCNc1nc(NCCN2CCCC2)nc(SCCCCCCC)n1 [Compound D3S7N9] | 2.8
CCCCCCCCCCCNc1nc(NCCN2CCCC2)nc(SCCCCCCC)n1 [Compound D3S7N11] | 9.6
CCCCCCCCCCCCNc1nc(NCCN2CCCC2)nc(SCCCCCCC)n1 [Compound D3S7N12] | 6.5
CCCCCCCCCCCCCNc1nc(NCCN2CCCC2)nc(SCCCCCCC)n1 [Compound D3S7N13] | 19.1
CCCCCCCCCCCCCCCNc1nc(NCCN2CCCC2)nc(SCCCCCCC)n1 [Compound D3S7N15] | 33.7
CCCCCCCCCCCCCCCCNc1nc(NCCN2CCCC2)nc(SCCCCCCC)n1 [Compound D3S7N16] | 25.0
CCCCCCCCCCCCCCCCCCNc1nc(NCCN2CCCC2)nc(SCCCCCCC)n1 [Compound D3S7N18] | 39.8
CCCCCCCSc1nc(NCCN2CCCC2)nc(SCCCCCCC)n1 [Compound D3S7S7] | 12.2
CCCCCCCCSc1nc(NCCN2CCCC2)nc(SCCCCCCC)n1 [Compound D3S7S8] | 2.7
CCCCCCCCCSc1nc(NCCN2CCCC2)nc(SCCCCCCC)n1 [Compound D3S7S9] | 12.6
CCCCCCCCCCSc1nc(NCCN2CCCC2)nc(SCCCCCCC)n1 [Compound D3S7S10] | 3.3
CCCCCCCCCCCSc1nc(NCCN2CCCC2)nc(SCCCCCCC)n1 [Compound D3S7S11] | 11.4
CCCCCCCCCCCCSc1nc(NCCN2CCCC2)nc(SCCCCCCC)n1 [Compound D3S7S12] | 5.4
CCCCCCCCCCCCCCSc1nc(NCCN2CCCC2)nc(SCCCCCCC)n1 [Compound D3S7S14] | 14.6
CCCCCCCCCCCCCCCSc1nc(NCCN2CCCC2)nc(SCCCCCCC)n1 [Compound D3S7S15] | 12.0
CCCCCCCCCCCCCCCCSc1nc(NCCN2CCCC2)nc(SCCCCCCC)n1 [Compound D3S7S16] | 11.6
CCCCCCCCCCCCCCCCCCSc1nc(NCCN2CCCC2)nc(SCCCCCCC)n1 [Compound D3S7S18] | 7.9
CCCCCCCCSc1nc(NCCCCCC)nc(NCCN2CCCC2)n1 [Compound D3S8N6] | 2.6
CCCCCCCCSc1nc(NCCCCCCC)nc(NCCN2CCCC2)n1 [Compound D3S8N7] | 0.7
CCCCCCCCNc1nc(NCCN2CCCC2)nc(SCCCCCCCC)n1 [Compound D3S8N8] | 3.0

SMILES | Absolute mRNA transfection efficiency in HEK293 cells [%]
CCCCCCCCCNc1nc(NCCN2CCCC2)nc(SCCCCCCCC)n1 [Compound D3S8N9] | 3.2
CCCCCCCCCCCNc1nc(NCCN2CCCC2)nc(SCCCCCCCC)n1 [Compound D3S8N11] | 6.6
CCCCCCCCCCCCNc1nc(NCCN2CCCC2)nc(SCCCCCCCC)n1 [Compound D3S8N12] | 24.6
CCCCCCCCCCCCCNc1nc(NCCN2CCCC2)nc(SCCCCCCCC)n1 [Compound D3S8N13] | 35.8
CCCCCCCCCCCCCCCNc1nc(NCCN2CCCC2)nc(SCCCCCCCC)n1 [Compound D3S8N15] | 21.8
CCCCCCCCCCCCCCCCNc1nc(NCCN2CCCC2)nc(SCCCCCCCC)n1 [Compound D3S8N16] | 14.3
CCCCCCCCCCCCCCCCCCNc1nc(NCCN2CCCC2)nc(SCCCCCCCC)n1 [Compound D3S8N18] | 28.6
CCCCCCCCSc1nc(NCCN2CCCC2)nc(SCCCCCCCC)n1 [Compound D3S8S8] | 26.1
CCCCCCCCCSc1nc(NCCN2CCCC2)nc(SCCCCCCCC)n1 [Compound D3S8S9] | 11.6
CCCCCCCCCCSc1nc(NCCN2CCCC2)nc(SCCCCCCCC)n1 [Compound D3S8S10] | 12.0
CCCCCCCCCCCSc1nc(NCCN2CCCC2)nc(SCCCCCCCC)n1 [Compound D3S8S11] | 4.9
CCCCCCCCCCCCSc1nc(NCCN2CCCC2)nc(SCCCCCCCC)n1 [Compound D3S8S12] | 3.5
CCCCCCCCCSc1nc(NCCCCCC)nc(NCCN2CCCC2)n1 [Compound D3S9N6] | 0.2
CCCCCCCCCSc1nc(NCCCCCCC)nc(NCCN2CCCC2)n1 [Compound D3S9N7] | 1.4
CCCCCCCCCSc1nc(NCCCCCCCC)nc(NCCN2CCCC2)n1 [Compound D3S9N8] | 10.4
CCCCCCCCCNc1nc(NCCN2CCCC2)nc(SCCCCCCCCC)n1 [Compound D3S9N9] | 15.4
CCCCCCCCCCCNc1nc(NCCN2CCCC2)nc(SCCCCCCCCC)n1 [Compound D3S9N11] | 47.8
CCCCCCCCCCCCNc1nc(NCCN2CCCC2)nc(SCCCCCCCCC)n1 [Compound D3S9N12] | 49.6
CCCCCCCCCCCCCNc1nc(NCCN2CCCC2)nc(SCCCCCCCCC)n1 [Compound D3S9N13] | 58.2
CCCCCCCCCCCCCCCNc1nc(NCCN2CCCC2)nc(SCCCCCCCCC)n1 [Compound D3S9N15] | 67.9
CCCCCCCCCCCCCCCCNc1nc(NCCN2CCCC2)nc(SCCCCCCCCC)n1 [Compound D3S9N16] | 50.3
CCCCCCCCCCCCCCCCCCNc1nc(NCCN2CCCC2)nc(SCCCCCCCCC)n1 [Compound D3S9N18] | 26.7
